Experimental data from US20250034200A1, “Prodrugs of Neurosteroid Analogs and Uses Thereof” (priority 2021, published 2025).
Read-outs that look alike come from different tables or passages of the source.

How the values were obtained:
[1] = male, Sprague Dawley, rat, in vivo
Experimental: Test System—Healthy male Sprague Dawley rats (8-12 weeks old) weighing between 200 to 250 g were procured from Global, India. […] Temperature and humidity were maintained at 22±3° C. and 30-70%, respectively and illumination was controlled to give a sequence of 12 h light and 12 h dark cycle. Temperature and humidity were recorded by auto-controlled data logger system. All the animals were provided with laboratory rodent diet (Envigo Research private Ltd, Hyderabad). Reverse osmosis water treated with ultraviolet light was provided ad libitum.
Design—Rats (n=3 per treatment group, serial sampling) were administered a solution of either normal saline vehicle or test compound in normal saline at 2 mg/kg (IV) or 10 mg/kg (IM) with a dosing volume of 5 mL/kg (IV) or 1 mL/kg (IM).
Sample Collection—Blood samples (approximately 60 μL) were collected under light isoflurane anesthesia (Surgivet®) from retro orbital plexus from a set of three rats at 0.08, 0.25, 0.5, 1, 2, 4, 6, 8 and 10 h (IV) or 0.25, 0.5, 1, 2, 4, 6, 8 and 10 h (IM). Immediately after blood collection, plasma was harvested by centrifugation 4000 rpm, 10 min at 40° C. and samples were stored at −70±10° C. until bioanalysis.
Data Analysis—Concentrations of the test compound and its parent compound, progesterone C20-oxime, in rat plasma were determined by fit-for-purpose LC-MS/MS method by Sai Life Sciences. […] Cmax represents the mean observed maximum concentration of analyte. Tmax represents the average time at observed Cmax. Areas under the curve (AUC0-last) were calculated via the linear trapezoidal rule using GraphPad Prism v9.

[2] = Nephelometry (aqueous solubility); type: physicochemical; details: DPBS with 1% DMSO, aqueous buffer, kinetic from dmso stock, DPBS pH 7.0-7.3, 1% DMSO, 25° C.
Source text: Well A1 of the plate contained 100% DMSO.

[3] = Aqueous stability assay (HPLC, pseudo first-order half-life); type: physicochemical; details: buffer; DPBS pH 7.0-7.3, 1 mg/mL, room temperature; d (days); read-out: PBS t1/2 (converted)
[4] = Plasma stability assay (LC-MS/MS); type: in vitro ADME; details: human plasma, 37° C., 3 μM
Summary of the method: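 Compound (3 μM final; 0.03% DMSO, up to 0.6% methanol) was incubated in human plasma at 37° C for up to 240 min, sampled at 0, 15, 30, 60, 120, 180 and 240 min in duplicate. Samples were quenched in cold acetonitrile or methanol with internal standard and quantified by LC-MS/MS (ESI+, MRM). Stability was derived from the slope of ln(% parent remaining) versus time.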

Structure (SMILES) | increase in the dose-corrected exposure to parent progesterone C20-oxime, IM compared to the IV route [1] | Parent AUClast ([1]; im, 10 mg/kg) | Parent AUClast ([1]; iv, 2 mg/kg) | Parent Cmax ([1]; iv, 2 mg/kg) | solubility at 90 min [2] | half-life [3] | Plasma t1/2 [4]
C/C(=N/OCOP(=O)([O-])[O-])[C@H]1CC[C@H]2[C@@H]3CCC4=CC(=O)CC[C@]4(C)[C@H]3CC[C@]12C.[Na+].[Na+] [EIDD-1723] | 3 fold | 753 ± 29 ng·h/mL | 48 ± 6 ng·h/mL | 219 ng/mL |  |  | 
C/C(=N\OC(=O)NCCN(C)C)[C@H]1CC[C@H]2[C@@H]3CCC4=CC(=O)CC[C@]4(C)[C@H]3CC[C@]12C.Cl [compound 34, (E)-9-((8S,9S,10R,13S,14S,17S)-10,13-dimethyl-3-oxo-2,3,6,7,8,9,10,11,12,13,14,15,16,17-tetradecahydro-1H-cyclopenta[a]phenanthren-17-yl)-2-methyl-7-oxa-2,5,8-triazadec-8-en-6-one hydrochloride] |  |  |  |  | > 750 µM | 32.8 days | >0.146 days
